Source: PubChem BioAssay AID248 (DTP/NCI, 2004)
Inconclusive results and toxic doses are left out. No stated cut-off is given here; in the data, active means T/C of 150% or more; inactive means T/C below 125%.

Test system: L1210 leukemia ip in BDF1 mice, survival T/C
Assay: NCI In Vivo Anticancer Drug Screen. Data for tumor model L1210 Leukemia (intraperitoneal) in B6D2F1 (BDF1) mice
Conditions: endpoint: mean survival time, higher = longer survival
How it was run: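 In this screen, tumor-bearing mice given compound are compared to those given vehicle, and their survival values are reported as a treated-to-control quotient.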

[1] = dose: 100.0 mg/kg/injection, schedule: Q04DX002 (ip), vehicle: Klucel (hydroxypropylcellulose) (HPC)
[2] = dose: 200.0 mg/kg/injection, schedule: Q04DX002 (ip), vehicle: Klucel (hydroxypropylcellulose) (HPC)
[3] = dose: 100.0 mg/kg/injection, schedule: Q01DX009 (ip), vehicle: saline with Tween-80
[4] = dose: 200.0 mg/kg/injection, schedule: Q01DX009 (ip), vehicle: saline with Tween-80
[5] = dose: 400.0 mg/kg/injection, schedule: Q01DX009 (ip), vehicle: saline with Tween-80

Measured: T/C

O=C1/C(=C\c2cccc3ccccc23)N2CCC1CC2
inactive: [1] 100 % of control | [2] 96 % of control | dose: 400.0 mg/kg/injection, schedule: Q04DX002 (ip), vehicle: Klucel (hydroxypropylcellulose) (HPC) 104 % of control

CC(=O)NC1C(NC(=O)CC(NC(=O)OCc2ccccc2)C(=O)O)OC(COC(C)=O)C(OC(C)=O)C1OC(C)=O (stereo not drawn)
inactive: dose: 50.0 mg/kg/injection, schedule: Q04DX002 (ip), vehicle: saline 91 % of control | dose: 100.0 mg/kg/injection, schedule: Q04DX002 (ip), vehicle: saline 94 % of control | dose: 200.0 mg/kg/injection, schedule: Q04DX002 (ip), vehicle: saline 100 % of control

CCC1(C)CCC2C(=CCC3C(C)(C(=O)O)CCCC23C)C1 (stereo not drawn)
inactive: [3] 91 % of control | [4] 93 % of control | [5] 86 % of control

O=C1Nc2ccccc2C(=O)Nc2ccccc21
inactive: dose: 100.0 mg/kg/injection, schedule: Q04DX003 (ip), vehicle: acetone 98 % of control | dose: 200.0 mg/kg/injection, schedule: Q04DX003 (ip), vehicle: acetone 93 % of control | dose: 400.0 mg/kg/injection, schedule: Q04DX003 (ip), vehicle: acetone 101 % of control

O=C(c1ccccc1)C1CNCCC1(O)c1ccccc1 (stereo not drawn)
inactive: dose: 75.0 mg/kg/injection, schedule: Q01DX001 (ip), vehicle: saline 104 % of control | dose: 75.0 mg/kg/injection, schedule: Q04DX003 (ip), vehicle: acetone 101 % of control | dose: 150.0 mg/kg/injection, schedule: Q01DX001 (ip), vehicle: saline 95 % of control | dose: 150.0 mg/kg/injection, schedule: Q04DX003 (ip), vehicle: acetone 91 % of control | dose: 300.0 mg/kg/injection, schedule: Q01DX001 (ip), vehicle: saline 116 % of control

O=C1CCCCC1C(O)(C(=O)c1ccccc1)c1ccccc1 (stereo not drawn) (tested in a mixture with another compound)
inactive: dose: 50.0 mg/kg/injection, schedule: Q01DX009 (ip), vehicle: saline with Tween-80 97 % of control | [3] 87 % of control | [4] 91 % of control

COC(=O)C1(C)COP(=O)(Nc2ccc(OC)cc2)OC1 (stereo not drawn)
inactive: dose: 100.0 mg/kg/injection, schedule: Q01DX001 (ip), vehicle: saline 89 % of control | dose: 200.0 mg/kg/injection, schedule: Q01DX001 (ip), vehicle: saline 89 % of control

CN(C(=O)c1ccc([N+](=O)[O-])cc1)C(c1ccco1)P(=O)(c1ccccc1)c1ccccc1 (stereo not drawn)
inactive: [3] 90 % of control | dose: 100.0 mg/kg/injection, schedule: Q04DX002 (ip), vehicle: saline with Tween-80 96 % of control | [4] 87 % of control | dose: 200.0 mg/kg/injection, schedule: Q04DX002 (ip), vehicle: saline with Tween-80 86 % of control | [5] 90 % of control | dose: 400.0 mg/kg/injection, schedule: Q04DX002 (ip), vehicle: saline with Tween-80 93 % of control

O=Cc1c(Cl)n(C(=O)c2ccccc2Cl)c2ccccc12
inactive: [1] 97 % of control | [2] 86 % of control

CN(C)Cc1ccc(N)cc1
inactive: dose: 10.0 mg/kg/injection, schedule: Q01DX009 (ip), vehicle: water 107 % of control | dose: 20.0 mg/kg/injection, schedule: Q01DX009 (ip), vehicle: water 105 % of control | dose: 40.0 mg/kg/injection, schedule: Q01DX009 (ip), vehicle: water 107 % of control | dose: 50.0 mg/kg/injection, schedule: Q01DX009 (ip), vehicle: water 91 % of control | dose: 80.0 mg/kg/injection, schedule: Q01DX009 (ip), vehicle: water 96 % of control | dose: 100.0 mg/kg/injection, schedule: Q01DX009 (ip), vehicle: water 88 % of control | dose: 100.0 mg/kg/injection, schedule: Q04DX003 (ip), vehicle: water 100 % of control | dose: 200.0 mg/kg/injection, schedule: Q04DX003 (ip), vehicle: water 102 % of control
